In patent US20180228861A1, “COMPOSITION FOR TREATING DIABETES AND DYSLIPIDEMIA OBTAINED FROM THE EXTRACT OF COSTUS PICTUS D.DON PLANT AND A METHOD OF PREPARING THE SAME” (ARJUNA NATURAL EXTRACTS, LTD., priority 2012, published 2018):

Tests used:
Type in all cases: in vivo
[1] = system: streptozotocin-induced Type 1 diabetic model in Wistar rats; test: Blood glucose level in streptozotocin-induced Type 1 diabetic model; conditions: extracts 40 mg/kg orally, glibenclamide 3 mg/kg orally
Protocol: Evaluation of effect of different fractions of fresh leaves of Costus pictus D. Donon streptozotocin-induced Type 1 diabetic model in Wistar rats.
(§1) The study was conducted in adult male Wistar rats weighing 200-250 gm for a period of 40 days (30 days of treatment and 10 days of induction). The animals were randomly divided into seven groups comprising six each. Diabetes was induced in all the groups except the normal control group by the intra peritoneal administration of streptozotocin at 50 mg/kg. After the induction of diabetes, one group was kept as diabetic untreated control and a positive control was maintained in which the animals were treated with standard drug, glibenclamide at 3 mg/kg orally. […] The effect of the different fractions was assessed by measuring the fasting blood glucose level, post prandial blood glucose level, serum insulin levels and glycosylated Hb. The anti hyperlipidemic effect was assessed by the estimation of total cholesterol, triglyceride, LDL cholesterol, HDL cholesterol, VLDL, muscle glycogen and liver glycogen. The antioxidant effects of the different extracts were assessed by the measuring TBARS, superoxide dismutase (SOD), catalase, reduced glutathione (GSH) and glutathione peroxidase levels (GPx). TBARS was determined by TBA assay (Ohkawa et al., 1979), SOD was measured using the nitroblue tetrazolium reduction method (Kakkar et al., 1984), Catalase was assayed using the method described by Aebi (1974). GPx was measured as described by Flohe and Gunzler (1984), GSH was measured as per the method of Jollow et al., (1974). Histopathological examination of pancreas was conducted to assess the antidiabetic effect of the different fractions of Costus pictus D. Don.
Group 3—Positive control—diabetic animals treated with glibenclamide at 3 mg/kg orally.
Group 4—diabetic animals treated with methanolic extract of fresh leaves of Costus pictus D. Don, the extract has low oxalic acid and/or oxalates content (Sample 2 prepared as per Example 1) at 40 mg/kg orally. […]

[2] = system: streptozotocin-induced Type 1 diabetic model in Wistar rats; test: Oral glucose tolerance test (post prandial glucose) in streptozotocin-induced diabetic rats; conditions: OGTT, glucose 2.5 g/kg oral gavage
Protocol: The study was conducted in adult male Wistar rats weighing 200-250 gm for a period of 40 days (30 days of treatment and 10 days of induction). The animals were randomly divided into seven groups comprising six each. Diabetes was induced in all the groups except the normal control group by the intra peritoneal administration of streptozotocin at 50 mg/kg. After the induction of diabetes, one group was kept as diabetic untreated control and a positive control was maintained in which the animals were treated with standard drug, glibenclamide at 3 mg/kg orally. All the other diabetic induced groups were treated with different extracts at 300 mg/kg orally. The effect of the different fractions was assessed by measuring the fasting blood glucose level, post prandial blood glucose level, serum insulin levels and glycosylated Hb. The anti hyperlipidemic effect was assessed by the estimation of total cholesterol, triglyceride, LDL cholesterol, HDL cholesterol, VLDL, muscle glycogen and liver glycogen. The antioxidant effects of the different extracts were assessed by the measuring TBARS, superoxide dismutase (SOD), catalase, reduced glutathione (GSH) and glutathione peroxidase levels (GPx). TBARS was determined by TBA assay (Ohkawa et al., 1979), SOD was measured using the nitroblue tetrazolium reduction method (Kakkar et al., 1984), Catalase was assayed using the method described by Aebi (1974). GPx was measured as described by Flohe and Gunzler (1984), GSH was measured as per the method of Jollow et al., (1974). Histopathological examination of pancreas was conducted to assess the antidiabetic effect of the different fractions of Costus pictus D. Don.
Oral glucose tolerance test (OGTT) was performed following a glucose challenge of 2.5 g/kg by oral gavage. Blood glucose was recorded at 30 min (PPG1), 60 min (PPG2), 120 min (PPG3) and 240 min (PPG4), after the glucose challenge on day 1, day 15 and day 30 of the study.

[3] = system: streptozotocin-induced Type 1 diabetic model in Wistar rats; test: Lipid profile in streptozotocin-induced diabetic rats; conditions: extracts 40 mg/kg orally, glibenclamide 3 mg/kg orally
Protocol: as §1, with “mg/kg.” for “mg/kg. After the induction of diabetes, one group was kept as diabetic untreated control and a positive control was maintained in which the animals were treated with standard drug, glibenclamide at 3 mg/kg orally.”

[4] = system: streptozotocin-induced Type 1 diabetic model in Wistar rats; test: Antioxidant enzymes and TBARS in streptozotocin-induced diabetic rats; conditions: extracts 40 mg/kg orally, glibenclamide 3 mg/kg orally
Protocol: as §1, with “mg/kg.” for “mg/kg. After the induction of diabetes, one group was kept as diabetic untreated control and a positive control was maintained in which the animals were treated with standard drug, glibenclamide at 3 mg/kg orally.”

[5] = system: streptozotocin-induced Type 1 diabetic model in Wistar rats; test: Pancreatic histopathology in streptozotocin-induced diabetic rats; conditions: for beta cell staining in islet of Langerhans (immune histochemistry, in words): FIG. 13-17
Protocol: as §1, with “mg/kg.” for “mg/kg. After the induction of diabetes, one group was kept as diabetic untreated control and a positive control was maintained in which the animals were treated with standard drug, glibenclamide at 3 mg/kg orally.”

**Q.** For `COc1ccc(Cl)cc1C(=O)NCCc1ccc(S(=O)(=O)NC(=O)NC2CCCCC2)cc1` [glibenclamide], which “blood glucose levels, 0th day” value ([1]; 0th day) is on record?
**A.** Its value is 321 mg/dL.

**Q.** What about the “blood glucose levels, 15th day” value ([1]; 15th day) of the same compound?
**A.** The value was 126 mg/dL.

**Q.** What about the “blood glucose levels, 30th day” value ([1]; 30th day) of the same compound?
**A.** The value was 71 mg/dL.

**Q.** And the “PPG1. 1” value ([2]; blood glucose at 30 min, day 1)?
**A.** Its value is 522.8.

**Q.** And the “PPG1. 15” value ([2]; blood glucose at 30 min, day 15)?
**A.** The value was 318.3.

**Q.** What about the “PPG1. 30” value ([2]; blood glucose at 30 min, day 30) of the same compound?
**A.** The value was 232.1.

**Q.** And the “PPG2. 1” value ([2]; blood glucose at 60 min, day 1)?
**A.** Its value is 478.4.

**Q.** And the “PPG2. 15” value ([2]; blood glucose at 60 min, day 15)?
**A.** Its value is 217.4.

**Q.** What about the “PPG2. 30” value ([2]; blood glucose at 60 min, day 30) of the same compound?
**A.** Its value is 240.4.

**Q.** And the “PPG3. 1” value ([2]; blood glucose at 120 min, day 1)?
**A.** Its value is 332.1.

**Q.** What about the “PPG3. 15” value ([2]; blood glucose at 120 min, day 15) of the same compound?
**A.** Its value is 115.3.

**Q.** And the “PPG3. 30” value ([2]; blood glucose at 120 min, day 30)?
**A.** Its value is 177.3.

**Q.** What about the “PPG4. 1” value ([2]; blood glucose at 240 min, day 1) of the same compound?
**A.** Its value is 201.9.

**Q.** What about the “PPG4. 15” value ([2]; blood glucose at 240 min, day 15) of the same compound?
**A.** Its value is 104.8.

**Q.** And the “PPG4. 30” value ([2]; blood glucose at 240 min, day 30)?
**A.** The value was 69.8.

**Q.** And the HDL ([3]; HDL cholesterol)?
**A.** Its HDL is 52 mg/dL.

**Q.** What about the LDL ([3]; LDL cholesterol) of the same compound?
**A.** The LDL was 56 mg/dL.

**Q.** What about the VLDL [3] of the same compound?
**A.** Its VLDL is 20 mg/dL.

**Q.** What about the TC ([3]; total cholesterol) of the same compound?
**A.** The TC was 128 mg/dL.

**Q.** What about the TG ([3]; triglyceride) of the same compound?
**A.** The TG was 100 mg/dL.

**Q.** And the Catalase [4]?
**A.** The Catalase was 59.36 nM H2O2 decomposed/s/g.

**Q.** And the GPx [4]?
**A.** The GPx was 7.54 U/mg of protein.

**Q.** What about the GSH [4] of the same compound?
**A.** Its GSH is 38.12 mg/100 g.

**Q.** And the SOD [4]?
**A.** Its SOD is 2.96 U/mg protein.

**Q.** And the TBARS [4]?
**A.** Its TBARS is 0.80 mM MDA/100 g.

**Q.** What about the “beta cell staining in islet of Langerhans (immune histochemistry, in words)” value ([5]; pancreas of streptozotocin-induced diabetic rats) of the same compound?
**A.** Its value is “moderately stained and comparable to group 1”.

**Q.** What about the “beta cell staining in islet of Langerhans (immune histochemistry, in words)” value ([5]; pancreas of streptozotocin-induced diabetic rats, listed as Glibenclamide) of the same compound?
**A.** The value was “moderately stained beta cells”.

**Q.** What about the “mean number of islets” value ([5]; pancreas of streptozotocin-induced diabetic rats, normal group 36, untreated diabetic group 5) of the same compound?
**A.** The value was 18.66.

**Q.** And the “appearance of islets in pancreas sections (in words)” value ([5]; versus untreated diabetic control)?
**A.** The value was “less shrunken than the untreated diabetic control group”.
